Reference: US20050112573A1, “Method of detecting toxic substance” (priority 2001, published 2005)

Test system: yeast genes (level of expressed mRNA)
Assay: DNA chip analysis of expressed mRNA of yeast genes after 2 h culture with a toxic chemical substance
Assay type: cell-based, Saccharomyces cerevisiae S288C
Method: Yeast (Saccharomyces cerevtisiae S288C (α SUC2mal mel gap2 CUP1)) were cultured at 25° C. on YPD medium (yeast extract 1%, polypepton 2%, glucose 2%). One of toxic chemical substances was added to the cell at logarithmic growth phase, and the cell was further cultured for two hours. Cell was cultured without any chemical substance in the same condition, and was used as control. Concentrations of the chemical substances were defined to inhibit the growth of the yeast but not lead to death.
After the completion of cultivation, the culture was centrifuged to collect the cells. To the cells, sodium acetate buffer (50 mM sodium acetate, 10 mM EDTA, 1% SDS) was added, and the mixture was shaken at 65° C. for five minutes, followed by returning to room temperature, and obtaining the supernatant, which procedure was repeated two times. To the supernatant, ½ amount of a solution of phenol/chloroform was added, and the mixture was centrifuged to give a supernatant, which was added with an equal amount of chloroform, and the mixture was centrifuged to give a supernatant. To the supernatant, an equal amount of isopropanol containing 0.3 M sodium acetate was added, and the mixture was allowed to stand at room temperature for 30 minutes, after which the mixture was centrifuged to give a sediment of the whole RNAs. Seventy % ethanol was added to the sediment, and the mixture was again centrifuged to give a sediment, which was then dried and dissolved in water. mRNA was isolated from the whole RNAs as followings. In view of the fact that a poly A chain is attached to the 3′ terminus of mRNA, a polynucleotide having a poly T structure which was immobilized on the surface of latex beads was used to trap the mRNA, and then the mRNA was washed and eluted with spine column (Oligotex-dT30<Super>mRNA Purification Kit, Takara). Reverse transcription of the mRNA was conducted with a reverse transcriptase (Super Script II Reverse Transcriptase; catalogue No. 18064-014, GibcoBRL) using fluorescence-labeled nucleotides to give cDNAs that were introduced with Cy3-dUTP or Cy5-dUTP during the reverse transcription.
The labeled cDNAs were dissolved in TE buffer (10 mM Tris-HCl/1 mM EDTA, pH8.0), and the solution was dropped on the DNA chip containing the whole genes of yeast (DNA Chip Research Inc. Japan) so that the cDNAs were hybridized on the DNA chip at 65° C. for over 12 hours. The fluoresces intensity of the DNA chip was read with a scanner, and the ratio relative to the fluorescence intensity resulting from the absence of chemical substance was estimated as the following, which is shown in Tables 1 to 9: [formula]
In the Tables, “Intensity” indicated in the rightmost column is a value of the level of expressed mRNA of each gene in control cells as divided by the average level of the expressions of the whole genes.

C[S+](C)[O-] [(15), dimethylsulfoxide]
The level of expressed mRNA in the presence of chemical substance/absence: YDR133C (gene YDR133C): 0.6
The level of expressed mRNA in the presence of chemical substance/absence: YDR140W (gene YDR140W): 0.9
The level of expressed mRNA in the presence of chemical substance/absence: YDR221W (gene YDR221W): 1.0
The level of expressed mRNA in the presence of chemical substance/absence: YDR250C (gene YDR250C): 0.7
The level of expressed mRNA in the presence of chemical substance/absence: YDR271C (gene YDR271C): 1.3
The level of expressed mRNA in the presence of chemical substance/absence: YDR278C (gene YDR278C): 0.7
The level of expressed mRNA in the presence of chemical substance/absence: YDR281C (gene YDR281C): 0.3
The level of expressed mRNA in the presence of chemical substance/absence: YDR316W (gene YDR316W): 1.3
The level of expressed mRNA in the presence of chemical substance/absence: YDR338C (gene YDR338C): 0.8
The level of expressed mRNA in the presence of chemical substance/absence: YDR366C (gene YDR366C): 1.4
level of expressed mRNA in the presence of chemical substance/in its absence (gene YDR380W): 2.4
level of expressed mRNA in the presence of chemical substance/in its absence (gene YDR410C): 1.2
The level of expressed mRNA in the presence of chemical substance/absence: YDR421W (gene YDR421W): 1.9
The level of expressed mRNA in the presence of chemical substance/absence: YDR425W (gene YDR425W): 1.3
The level of expressed mRNA in the presence of chemical substance/absence: YDR485C (gene YDR485C): 1.3
level of expressed mRNA in the presence of chemical substance/in its absence (gene YDR487C): 1.0
level of expressed mRNA in the presence of chemical substance/in its absence (gene YDR502C): 8.2
The level of expressed mRNA in the presence of chemical substance/absence: YDR504C (gene YDR504C): 1.2
level of expressed mRNA in the presence of chemical substance/in its absence (gene YEL011W): 0.4
level of expressed mRNA in the presence of chemical substance/in its absence (gene YEL020C): 1.4
The level of expressed mRNA in the presence of chemical substance/absence: YEL044W (gene YEL044W): 0.6
level of expressed mRNA in the presence of chemical substance/in its absence (gene YER026C): 4.0
level of expressed mRNA in the presence of chemical substance/in its absence (gene YER069W): 2.4
The level of expressed mRNA in the presence of chemical substance/absence: YER092W (gene YER092W): 1.0
The level of expressed mRNA in the presence of chemical substance/absence: YER182W (gene YER182W): 0.5
The level of expressed mRNA in the presence of chemical substance/absence: YFL042C (gene YFL042C): 1.1
level of expressed mRNA in the presence of chemical substance/in its absence (gene YFR015C): 0.4
The level of expressed mRNA in the presence of chemical substance/absence: YFR026C (gene YFR026C): 2.3
The level of expressed mRNA in the presence of chemical substance/absence: YFR056C (gene YFR056C): 0.9
level of expressed mRNA in the presence of chemical substance/in its absence (gene YGL001C): 0.9
level of expressed mRNA in the presence of chemical substance/in its absence (gene YGL022W): 4.0
level of expressed mRNA in the presence of chemical substance/in its absence (gene YGL039W): 1.5
The level of expressed mRNA in the presence of chemical substance/absence: YGL041C (gene YGL041C): 0.7
The level of expressed mRNA in the presence of chemical substance/absence: YGL045W (gene YGL045W): 1.5
The level of expressed mRNA in the presence of chemical substance/absence: YGL057C (gene YGL057C): 0.7
The level of expressed mRNA in the presence of chemical substance/absence: YGL088W (gene YGL088W): 0.4
level of expressed mRNA in the presence of chemical substance/in its absence (gene YGL104C): 0.9
level of expressed mRNA in the presence of chemical substance/in its absence (gene YGL126W): 2.8
level of expressed mRNA in the presence of chemical substance/in its absence (gene YGL134W): 0.5
level of expressed mRNA in the presence of chemical substance/in its absence (gene YGL154C): 0.8
The level of expressed mRNA in the presence of chemical substance/absence: YGL183C (gene YGL183C): 1.7
level of expressed mRNA in the presence of chemical substance/in its absence (gene YGL209W): 3.2
The level of expressed mRNA in the presence of chemical substance/absence: YGL223C (gene YGL223C): 0.7
level of expressed mRNA in the presence of chemical substance/in its absence (gene YGL253W): 0.8
The level of expressed mRNA in the presence of chemical substance/absence: YGR038W (gene YGR038W): 1.1
level of expressed mRNA in the presence of chemical substance/in its absence (gene YGR060W): 1.4
The level of expressed mRNA in the presence of chemical substance/absence: YGR139W (gene YGR139W): 2.3
The level of expressed mRNA in the presence of chemical substance/absence: YGR156W (gene YGR156W): 1.3
The level of expressed mRNA in the presence of chemical substance/absence: YGR198W (gene YGR198W): 0.9
The level of expressed mRNA in the presence of chemical substance/absence: YGR210C (gene YGR210C): 1.3
The level of expressed mRNA in the presence of chemical substance/absence: YGR211W (gene YGR211W): 0.5
The level of expressed mRNA in the presence of chemical substance/absence: YGR237C (gene YGR237C): 1.1
The level of expressed mRNA in the presence of chemical substance/absence: YGR243W (gene YGR243W): 0.8
The level of expressed mRNA in the presence of chemical substance/absence: YGR250C (gene YGR250C): 1.2
The level of expressed mRNA in the presence of chemical substance/absence: YGR266W (gene YGR266W): 1.1
The level of expressed mRNA in the presence of chemical substance/absence: YGR277C (gene YGR277C): 0.9
level of expressed mRNA in the presence of chemical substance/in its absence (gene YGR282C): 2.9
